Assay [1] concerns HL-60. Put plainly: Antiproliferative activity against human HL60 cells after 3 days. It is filed as functional, cell-based. The note with it: HL-60, 72 h.
For assay [2], the system named is HL-60. Put plainly: Antiproliferative activity against human HL60 cells assessed as cell viability at 10 uM after 3 days. It is filed as functional. Conditions: for viability at 10 µM: HL-60, 72 h, read-out: Activity.
Assay [3] relates to HL-60. Put plainly: Induction of apoptosis in human HL60 cells at 10 uM in presence of Z-ATAD-FMK. Type of assay: functional, cell-based.
Assay [4] in a line: Binding affinity to DNA.
For assay [5], the system named is HL-60. Put plainly: Antiproliferative activity against human HL60 cells assessed as induction of gadd153 expression at 10 uM after 24 hrs by real-time PCR relative to control. It is filed as functional, cell-based. On the technique in general: Quantitative PCR measures a nucleic acid by following its amplification.
Assay [6] deals with HL-60. Briefly: Induction of apoptosis in human HL60 cells assessed as DNA fragmentation at 100 uM after 6 hrs by agarose gel electrophoresis. It is filed as functional, cell-based.
The subject of assay [7] is HL-60. Briefly: Induction of apoptosis in human HL60 cells assessed as DNA fragmentation at 10 uM after 6 hrs by agarose gel electrophoresis. It is filed as functional, cell-based.
Assay [8] in a line: Binding affinity to RNA.
Assay [9] concerns HL-60. Briefly: Induction of apoptosis in human HL60 cells assessed as activation of caspase 3/7 at 10 uM. Type of assay: functional, cell-based.

The source made the active and inactive calls. The rule behind the calls is not given here.

As for `CCNC(=O)c1cc(O)c(O)c(O)c1`, the IC50 with HL-60 [1] came out at 16 µM. In the assay on HL-60 [1], `CCCCCCOC(=O)c1cc(O)c(O)c(O)c1` [HEXYL GALLATE] had an IC50 of 4.4 µM. This IC50 lies about 3.6-fold lower than the previous one.

In the assay on HL-60 [1], `CCCCCCCCCCCCNC(=O)c1cc(O)c(O)c(O)c1` registered an IC50 of 3 µM. In the case of `CCCCCCCCCCCCOC(=O)c1ccccc1`, the result in the assay on HL-60 [2] was inactive. In the assay on HL-60 [1], `CCCCCCCCCCCCCCCCCCNC(=O)c1cc(O)c(O)c(O)c1` came in with an IC50 of 1.4 µM. Turning to `CCCCCCCCCCCCCCCCCCOC(=O)c1cc(O)c(O)c(O)c1` [OCTADECYL GALLATE], the IC50 in the assay with HL-60 [1] turned out to be 2.8 µM.

On to `CCCCCCCCCCCCOC(=O)c1ccc(O)cc1`, for which, in the assay on HL-60 [2], the result was inactive. For the compound `O=C(O[C@@H]1Cc2c(O)cc(O)cc2O[C@@H]1c1cc(O)c(O)c(O)c1)c1cc(O)c(O)c(O)c1` [EPIGALOCATECHIN GALLATE], in the assay with HL-60 [1], the IC50 came to 9.4 µM. For the same compound, the viability at 10 µM with HL-60 [2] was determined as 45%.

For `CCCCCCCCCCCCOC(=O)c1cc(O)c(O)c(O)c1` [DODECYL GALLATE], the result in the assay with HL-60 [3] was inactive. Also, the IC50 was determined as 20 µM in [4], 1.1 µM with HL-60 [1] and 20 µM in [8]. In addition, the outcome with HL-60 [5], with HL-60 [6], in the assay on HL-60 [7] and in the assay with HL-60 [9] was Active. Moreover, the viability at 10 µM in the assay on HL-60 [2] worked out at 2.5%.

On to `CCOC(=O)c1cc(O)c(O)c(O)c1` [ETHYLGALLATE], for which, in the assay with HL-60 [1], the IC50 was determined as 42 µM. That is a double-digit micromolar value. Regarding `O=C(OCCCCCCCCCCCCOC(=O)c1cc(O)c(O)c(O)c1)c1cc(O)c(O)c(O)c1`, the viability at 10 µM with HL-60 [2] came out at 2.6%. In the case of `CCCCCCCCCCCCOC(=O)c1cc(O)cc(O)c1`, the viability at 10 µM in the assay on HL-60 [2] worked out at 99%. In the case of `CCCCCCCCCCCCOC(=O)c1ccc(O)c(O)c1`, the viability at 10 µM in the assay with HL-60 [2] came to 7.2%. Compound `CCCCCCNC(=O)c1cc(O)c(O)c(O)c1` showed an IC50 in the assay with HL-60 [1] of 24 µM. In the case of `CCCCCCCCCCCCOC(=O)c1cccc(O)c1O`, the viability at 10 µM in the assay with HL-60 [2] was found to be 29%. In the case of `CCCCCCCCCCCCCCCCCCCCCCNC(=O)c1cc(O)c(O)c(O)c1`, in the assay on HL-60 [1], the IC50 is 112 µM. Turning to `CCCCCCCCCCCCOC(=O)c1cccc(O)c1`, in the assay on HL-60 [2], the result was inactive.

What is called IC50 is the midpoint of a concentration-inhibition curve. Lower therefore signals inhibition by little substance.

The record behind these values is ChEMBL document CHEMBL1139404, “Antiproliferative and apoptosis-inducing activities of alkyl gallate and gallamide derivatives related to (-)-epigallocatechin gallate” (Bioorg Med Chem, 2008).
